The text below walks through data of patent US20230293438A1, “INJECTABLE DRUG-RELEASING MICROPOROUS ANNEALED PARTICLE SCAFFOLDS FOR TREATING MYOCARDIAL INFARCTION” (THE REGENTS OF THE UNIVERSITY OF CALIFORNIA, priority 2020, published 2023).

In general, viability refers to the share of living cells, or the viability signal relative to a control.

Experiment [1] concerns Human umbilical vein endothelial cells (HUVECs). The experiment can be described thus: Endothelial cell proliferation (MTS assay). In kind it is cell-based. As to the method: The drug effects on EC proliferation and network formation were evaluated. Human umbilical vein endothelial cells (HUVECs) were seeded on 0.1% gelatin-coated 24-well plates with a density of 5, 000 cells/cm^2 and cultured overnight in DMEM containing 10% FBS and 1% P/S. On the next day, the culture medium was replaced by the fresh medium containing F and R at the determined concentrations and combinations, and the medium was changed every other day. MTS cell proliferation assay was performed on day 1, 3 and 5. In addition, the ECs network formation was examined on growth factor reduced Matrigel according to the manufacturer's instructions (cat# CB-40230C, Thermo Fisher Scientific). Briefly, 24-well plates were coated with Matrigel. ECs were digested and plated onto a layer of Matrigel at a density of 3×10^5 cells/well in M199 medium containing 1% FBS and […], with the addition of F and R. Vascular endothelial growth factor (VEGF, 20 ng/mL) was used as a positive control. After 16 hours of culture, cells were stained with calcein acetoxymethyl ester (calcein-AM) and observed with an inverted fluorescent microscope. The number of tubular structures, junctions and meshes were analyzed by Image J with the Angiogenesis Analyzer plugin (n = 4-6 per group).
Background: Tetrazolium dyes change colour on reduction, which living cells bring about.

Experiment [2] has as its system neonatal rat cardiomyocytes. The experiment can be described thus: Cardiomyocyte viability (live/dead assay). In kind it is cell-based. As to conditions: 120 h, after 5 days in vitro culture, drugs in medium (20 µM), control cells 25 %. As to the method:
(§1) Cell isolation: Primary neonatal rat cardiomyocytes and fibroblasts were isolated from the hearts of 1-2 day old Sprague-Dawley rat pups as described previously with minor modifications. Briefly, the cardiac tissue was minced and digested with 80 units/mL collagenase II (Worthington) and 0.8 mg/mL pancreatin (Sigma) at 37° C. in a water bath. Neonatal calf serum (NCS) was applied to inactivate enzymatic activity in the digested cell mixture. The cell solution was filtered through 100 µm mesh and centrifuged at 2200 rpm for 3 minutes. The cell pellets were suspended in 1 mL NCS and further separated by Percoll density gradient centrifugation. […]
Cell culture and evaluation of drug effects in vitro: The drug effects on cardiomyocyte viability and proliferation were evaluated. Isolated cardiomyocytes were calculated and seeded on 0.1% gelatin-coated twenty-four well tissue culture plate with a density of 20, 000 cells/cm^2, and cultured at 37° C. in a humidified, 5% CO2 incubator overnight in DMEM/Medium 199 (4/1) containing 10% FBS, 1% NEAAs and 1% P/S. The next day, the culture medium was replaced by fresh medium containing 20 µM F, R or their combination. […] A live/dead kit (Invitrogen) was for cell viability assay, and images were taken using inverted microscope fluorescence microscopy (Zeiss Axio Observer Z1) to determine the cell numbers and the percentage of dead cells. […]

In experiment [3] the test system is Human umbilical vein endothelial cells (HUVECs). The experiment can be described thus: Endothelial cell tubule network formation on Matrigel. It is filed as cell-based. As to conditions: drugs in medium, 16 hours. The protocol: The drug effects on EC proliferation and network formation were evaluated. Human umbilical vein endothelial cells (HUVECs) were seeded on 0.1% gelatin-coated 24-well plates with a density of 5, 000 cells/cm^2 and cultured overnight in DMEM containing 10% FBS and 1% P/S. On the next day, the culture medium was replaced by the fresh medium containing F and R at the determined concentrations and combinations, and the medium was changed every other day. MTS cell proliferation assay was performed on day 1, 3 and 5. In addition, the ECs network formation was examined on growth factor reduced Matrigel according to the manufacturer’s instructions (cat# CB-40230C, Thermo Fisher Scientific). Briefly, 24-well plates were coated with Matrigel. ECs were digested and plated onto a layer of Matrigel at a density of 3×10^5 cells/well in M199 medium containing 1% FBS and 1% P/S, with the addition of F and R. Vascular endothelial growth factor (VEGF, 20 ng/mL) was used as a positive control. After 16 hours of culture, cells were stained with calcein acetoxymethyl ester (calcein-AM) and observed with an inverted fluorescent microscope. The number of tubular structures, junctions and meshes were analyzed by Image J with the Angiogenesis Analyzer plugin (n = 4-6 per group).
(§2) The effects of drugs released from FR/NPs and FR/NPs-µGel particles 12 were evaluated using the methods mentioned above. […]

Experiment [4] has as its system cardiac fibroblasts. Put plainly: Cardiac fibroblast proliferation (MTS assay). In kind it is cell-based, rat. The following applies: drugs in medium. The protocol: Cell isolation: Primary neonatal rat cardiomyocytes and fibroblasts were isolated from the hearts of 1-2 day old Sprague-Dawley rat pups as described previously with minor modifications. Briefly, the cardiac tissue was minced and digested with 80 units/mL collagenase II (Worthington) and 0.8 mg/mL pancreatin (Sigma) at 37° C. in a water bath. Neonatal calf serum (NCS) was applied to inactivate enzymatic activity in the digested cell mixture. The cell solution was filtered through 100 µm mesh and centrifuged at 2200 rpm for 3 minutes. The cell pellets were suspended in 1 mL NCS and further separated by Percoll density gradient centrifugation. A two-layer density gradient was formed consisting of 40.5% Percoll (GE17-0891-01, Sigma) solution in the top layer and 58.5% Percoll solution in the bottom layer. The cell suspension was layered on top of the gradient and centrifuged at 3000 rpm at room temperature for 30 minutes. […] The drug effects on cardiac fibroblast proliferation and myo-differentiation were evaluated. Fibroblasts were seeded on twenty-four well tissue culture plate with a density of 5000 cells/cm^2 and cultured overnight in DMEM containing 10% FBS and 1% P/S. On the next day, the culture medium was replaced by the fresh medium containing F and R at the determined concentrations and combinations, and the medium was changed every other day. […]

Experiment [5] has as its system neonatal cardiomyocytes. Put plainly: Cardiomyocyte proliferation (EdU assay). In kind it is cell-based, rat. The following applies: drugs in medium. The protocol: Cell isolation: Primary neonatal rat cardiomyocytes and fibroblasts were isolated from the hearts of 1-2 day old Sprague-Dawley rat pups as described previously with minor modifications. Briefly, the cardiac tissue was minced and digested with 80 units/mL collagenase II (Worthington) and 0.8 mg/mL pancreatin (Sigma) at 37° C. in a water bath. Neonatal calf serum (NCS) was applied to inactivate enzymatic activity in the digested cell mixture. The cell solution was filtered through 100 µm mesh and centrifuged at 2200 rpm for 3 minutes. The cell pellets were suspended in 1 mL NCS and further separated by Percoll density gradient centrifugation. […] Cell culture and evaluation of drug effects in vitro: The drug effects on cardiomyocyte viability and proliferation were evaluated. Isolated cardiomyocytes were calculated and seeded on 0.1% gelatin-coated twenty-four well tissue culture plate with a density of 20, 000 cells/cm^2, and cultured at 37° C. in a humidified, 5% CO2 incubator overnight in DMEM/Medium 199 (4/1) containing 10% FBS, 1% NEAAs and 1% P/S. […] A live/dead kit (Invitrogen) was for cell viability assay, and images were taken using inverted microscope fluorescence microscopy (Zeiss Axio Observer Z1) to determine the cell numbers and the percentage of dead cells. […]

In experiment [6] the test system is neonatal cardiac fibroblasts. The experiment can be described thus: Cardiac fibroblast myo-differentiation (α-SMA / F-actin staining). In kind it is cell-based, rat. As to conditions: drugs in medium, day 5. The protocol: as §1, with “centrifugation. A two-layer density gradient was formed consisting of 40.5% Percoll (GE17-0891-01, Sigma) solution in the top layer and 58.5% Percoll solution in the bottom layer.” for “centrifugation.”
The drug effects on cardiac fibroblast proliferation and myo-differentiation were evaluated. Fibroblasts were seeded on twenty-four well tissue culture plate with a density of 5000 cells/cm^2 and cultured overnight in DMEM containing 10% FBS and 1% P/S. On the next day, the culture medium was replaced by the fresh medium containing F and R at the determined concentrations and combinations, and the medium was changed every other day. […]
as §2

Regarding `C=C[C@@]1(C)CC(=O)[C@]2(O)[C@@]3(C)[C@@H](O)CCC(C)(C)[C@@H]3[C@H](O)[C@H](OC(C)=O)[C@@]2(C)O1` [F, Forskolin], the “optimal concentration to enhance EC proliferation” value in experiment [1] turned out to be 20 µM. Besides, in experiment [2], the viability at 20 µM was determined as 80%.
For the compound `Cc1cccc(-c2n[nH]cc2-c2ccc3ncccc3n2)n1` [R, 2-(3-(6-Methylpyridine-2-yl)-1H-pyrazol-4-yl)-1,5-naphthyridine], in experiment [3], the EC network formation result is recorded as “not with R alone”. The “optimal concentration to enhance EC proliferation” value in experiment [1] is reported as 20 µM. In addition, the EC proliferation result in experiment [1] (drugs in medium) is “dose-dependent effects to enhance EC proliferation”. Further, in experiment [4], the fibroblast proliferation entry is listed as “opposite inhibitory effects”. For the same compound, the “proliferation of neonatal cardiomyocytes, times as many cells as the control” value in experiment [5] was “six”. In addition, in experiment [2], the viability at 20 µM is 80%. Further, in experiment [6], the “myo-differentiation of cardiac fibroblasts” value is listed as “could prevent myo-differentiation of cardiac fibroblasts”.
